Experimental data published in patent US20100267561A1, “HERBICIDAL PYRIDAZINONE DERIVATIVES” (priority 2007, published 2010).

Tests used:
Format in all cases: in vivo
[1] = system: yellow nutsedge (Cyperus esculentus); assay: Test B pre-/postemergence plant response
Procedure, shortened: (§1)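 Visual scoring from 0 (no effect) to 100 (complete control) against untreated controls was done 13 to 15 days after greenhouse treatment. Chemicals were formulated in a surfactant-containing non-phytotoxic solvent and applied to soil preemergence or to 1- to 4-leaf (2-18 cm) plants postemergence.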

[2] = system: wheat (Triticum aestivum); assay: Test B pre-/postemergence plant response
Procedure, shortened: as §1

[3] = system: bermudagrass (Cynodon dactylon); assay: Test B pre-/postemergence plant response
Procedure, shortened: as §1

[4] = system: Italian ryegrass (Lolium multiflorum); assay: Test B pre-/postemergence plant response
Procedure, shortened: as §1

[5] = system: eastern black (E.B.) nightshade (Solanum ptycanthum); assay: Test B pre-/postemergence plant response; details: Preemergence
Procedure, shortened: as §1

soybean (Glycine max) = assay: Test B pre-/postemergence plant response
Procedure, shortened: as §1

kochia (Kochia scoparia) = assay: Test B pre-/postemergence plant response
Procedure, shortened: as §1

[6] = system: common (oilseed) sunflower (Helianthus annuus); assay: Test B pre-/postemergence plant response; details: Preemergence
Procedure, shortened: as §1

[7] = system: johnsongrass (Sorghum halepense); assay: Test B pre-/postemergence plant response
Procedure, shortened: as §1

[8] = system: velvetleaf (Abutilon theophrasti); assay: Test B pre-/postemergence plant response
Procedure, shortened: as §1

corn (Zea mays) = assay: Test A pre-/postemergence plant response
Procedure, shortened: (§2)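 Greenhouse pot test: loam–sand soil; pre- and postemergence sprays applied same day; post plants 2–10 cm, 1–2 leaves. Readout ~10 d, visual % injury vs untreated (0 = none, 100 = complete control).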

[9] = system: giant foxtail (Setaria faberi); assay: Test A pre-/postemergence plant response
Procedure, shortened: as §2

[10] = 8 g ai/ha, postemergence, 0-100 scale
[11] = 16 g ai/ha, postemergence, 0-100 scale
[12] = Postemergence, 31 g ai/ha, scale 0 to 100
[13] = Postemergence, 62 g ai/ha, scale 0 to 100, 0 no effect, 100 complete control
[14] = Preemergence, 8 g ai/ha, scale 0 to 100 (0 no effect, 100 complete control)
[15] = Preemergence, 31 g ai/ha, scale 0 to 100 (0 no effect, 100 complete control)
[16] = Preemergence, 62 g ai/ha, 0 to 100 scale, 0 no effect, 100 complete control
[17] = Preemergence, 16 g ai/ha, scale 0 to 100
[18] = 8 g ai/ha, scale 0 to 100 (0 no effect, 100 complete control)
[19] = 31 g ai/ha, scale 0 to 100 (0 no effect, 100 complete control)
[20] = 62 g ai/ha, 0 to 100 scale, 0 no effect, 100 complete control
[21] = Postemergence, 31 g ai/ha, 0 to 100 scale, 0 no effect, 100 complete control
[22] = Postemergence, 125 g ai/ha, 0 to 100 scale, 0 no effect, 100 complete control
[23] = Preemergence, 31 g ai/ha, 0 to 100 scale, 0 is no effect, 100 is complete control
[24] = Preemergence, 125 g ai/ha, 0 to 100 scale (0 no effect, 100 complete control)

CCc1c(C)c(-c2ccc(Br)cc2)nn1-c1c(O)cnn(C)c1=O [Compound 83]
Nutsedge, Yellow plant response rating [1, 10]: 0 | Nutsedge, Yellow plant response rating [1, 11]: 0 | Plant response rating, Nutsedge, Yellow [1, 12]: 0 | Plant response rating, Nutsedge, Yellow [1, 13]: 0 | Nutsedge, Yellow plant response rating [1, 14]: 0 | Plant response rating, Nutsedge, Yellow [1, 15]: 0 | Plant response rating, Nutsedge, Yellow [1, 16]: 0 | Nutsedge, Yellow plant response rating [1, 17]: 0 | Wheat plant response rating [2, 10]: 40 | Wheat plant response rating [2, 11]: 55 | Plant response rating, Wheat [2, 12]: 90 | Plant response rating, Wheat [2, 13]: 95 | Wheat plant response rating [2, 14]: 0 | Plant response rating, Wheat [2, 15]: 0 | Plant response rating, Wheat [2, 16]: 20 | Wheat plant response rating [2, 17]: 0 | Bermudagrass plant response rating [3, 10]: 40 | Bermudagrass plant response rating [3, 11]: 65 | Plant response rating, Bermudagrass [3, 12]: 85 | Plant response rating, Bermudagrass [3, 13]: 90 | Bermudagrass plant response rating [3, 14]: 55 | Bermudagrass plant response rating ([3]; Preemergence, 16 g ai/ha, scale 0 to 100 (0 no effect, 100 complete control)): 65 | Plant response rating, Bermudagrass [3, 15]: 100 | Plant response rating, Bermudagrass [3, 16]: 100 | Ryegrass, Italian plant response rating [4, 10]: 85 | Ryegrass, Italian plant response rating [4, 11]: 98 | Plant response rating, Ryegrass, Italian [4, 12]: 100 | Plant response rating, Ryegrass, Italian [4, 13]: 100 | Ryegrass, Italian plant response rating [4, 14]: 30 | Plant response rating, Ryegrass, Italian [4, 15]: 100 | Plant response rating, Ryegrass, Italian [4, 16]: 100 | Ryegrass, Italian plant response rating [4, 17]: 85 | Nightshade, E. B. plant response rating [5, 18]: 0 | Plant response rating, Nightshade, E. B. [5, 19]: 0 | Plant response rating, Nightshade, E. B. [5, 20]: 0 | Nightshade, E. B. plant response rating ([5]; 16 g ai/ha, scale 0 to 100): 0 | Soybean plant response rating (soybean (Glycine max); [10]): 0 | Soybean plant response rating (soybean (Glycine max); [11]): 0 | Plant response rating, Soybean (soybean (Glycine max); [12]): 0 | Plant response rating, Soybean (soybean (Glycine max); [13]): 0 | Soybean plant response rating (soybean (Glycine max); [14]): 0 | Plant response rating, Soybean (soybean (Glycine max); [15]): 0 | Plant response rating, Soybean (soybean (Glycine max); [16]): 0 | Soybean plant response rating (soybean (Glycine max); [17]): 0 | Kochia plant response rating (kochia (Kochia scoparia); [10]): 0 | Kochia plant response rating (kochia (Kochia scoparia); [11]): 0 | Plant response rating, Kochia (kochia (Kochia scoparia); [12]): 0 | Plant response rating, Kochia (kochia (Kochia scoparia); [13]): 0 | Kochia plant response rating (kochia (Kochia scoparia); [14]): 50 | Plant response rating, Kochia (kochia (Kochia scoparia); [15]): 100 | Plant response rating, Kochia (kochia (Kochia scoparia); [16]): 100 | Kochia plant response rating (kochia (Kochia scoparia); [17]): 100 | Sunflower plant response rating [6, 18]: 0 | Plant response rating, Sunflower [6, 19]: 0 | Plant response rating, Sunflower [6, 20]: 0 | Sunflower plant response rating ([6]; 16 g ai/ha, scale 0 to 100): 0 | Johnsongrass plant response rating [7, 10]: 65 | Johnsongrass plant response rating [7, 11]: 70 | Plant response rating, Johnsongrass [7, 12]: 98 | Plant response rating, Johnsongrass [7, 13]: 100 | Johnsongrass plant response rating [7, 14]: 55 | Plant response rating, Johnsongrass [7, 15]: 95 | Plant response rating, Johnsongrass [7, 16]: 98 | Johnsongrass plant response rating [7, 17]: 85 | Velvetleaf plant response rating [8, 10]: 0 | Velvetleaf plant response rating [8, 11]: 0 | Plant response rating, Velvetleaf [8, 12]: 0 | Plant response rating, Velvetleaf [8, 13]: 20 | Velvetleaf plant response rating [8, 14]: 0 | Plant response rating, Velvetleaf [8, 15]: 0 | Plant response rating, Velvetleaf [8, 16]: 0 | Velvetleaf plant response rating [8, 17]: 0 | Plant response rating, Corn (corn (Zea mays); [21]): 0 | Plant response rating, Corn (corn (Zea mays); [22]): 100 | Plant response rating, Corn (corn (Zea mays); [23]): 0 | Plant response rating, Corn (corn (Zea mays); [24]): 40 | Plant response rating, Foxtail, Giant [9, 21]: 90 | Plant response rating, Foxtail, Giant [9, 22]: 100 | Plant response rating, Foxtail, Giant [9, 23]: 0 | Plant response rating, Foxtail, Giant [9, 24]: 100
